This is an account of results in US11752125B2, “Anti-neuroinflammatory and protective compounds in Achillea fragrantissima” (THE STATE OF ISRAEL MINISTRY OF AGRICULTURE & RURAL …, priority 2013, dated 2023).

One assay relates to SAPK/JNK. Nature of the assay: H2O2-induced SAPK/JNK phosphorylation in astrocytes (ELISA). The assay is classed as cell-based, rat. The following applies: H2O2 175 μM 40 min. Here is the method:
Astrocytes were treated with TTF 2 h before the addition of H2O2. Cells were lysed 40 minutes after the addition of H2O2 in lysis buffer supplied by PathScan sandwich ELISA kit (Cell Signaling TECHNOLOGY) according to the manufacturer's protocol. Protein concentrations in cell lysates were determined by Bradford reagent (Bio-Rad, Hercules, Calif.), and equal amounts of proteins were subjected to ELISA. To measure the amount of total and phosphoSAPK/JNK in cell lysates of astrocytes, ELISA was performed according to the manufacturer's protocol using the PathScan total SAPK/JNK sandwich ELISA kit (Cell Signaling TECHNOLOGY) and the PathScan phospho-SAPK/JNK (Thr183/Tyr185) sandwich ELISA kit (Cell Signaling TECHNOLOGY), respectively. […] The optical density was determined at 450 nm using a microplate reader.
1. […] Determine the optical density at 450 nm using a microplate reader.
Astrocytes were treated with 175 μM of H2O2 for 40 min following preincubation with TTF for 2 h. The levels of phosphorylated and total SAPK/JNK (FIG. 3A), MEK1 (FIG. 3B) and ERK 1/2 (FIG. 3C) were measured by ELISA. […]

The next assay deals with IL-1β. The assay can be described thus: IL-1β secretion from LPS-stimulated microglial cells (ELISA). The conditions noted are these: LPS 100 ng/mL, 24 h. The class given is cell-based, rat. On the procedure:
Cultures of primary rat microglial cells were prepared from cerebral cortices of 1-2 day-old neonatal Wistar rats as described. Microglial cells were seeded at 24-well plastic plates at 1×10^5/well in RPMI-1640 containing 2% FBS, 2 mM glutamine, 100 U/mL penicillin, 100 µg/mL streptomycin, 1 mM sodium pyruvate, and 50 μM β-mercaptoethanol. Cells were cultured for 36 h before treatments. The research was conducted in accordance with the NIH guide for the care and use of laboratory animals, and was approved by the Institutional Animal Care and Use Committee of The Volcani Center, Agricultural Research Organization (IL-135/07, approval date Apr. 11, 2007). All efforts were made to minimize animal suffering, and to reduce the number of animals used.
For IL-1β measurements, 3.5×10^4 cells/well were plated on a 24-well tissue culture plate. After 24 h of incubation in DMEM containing 10% FBS, cells were stimulated with LPS (100 ng/mL) and treated with different concentrations of achillolide A. Conditioned media were collected twenty four hours later, and were tested with a rat IL1β ELISA kit (Novus Biologicals; CO, USA), according to the manufacturer's instructions.
2. Plate microglial cells (3.5×10^4 cells/well) on a 24-well tissue culture plate, in DMEM containing 10% FBS, 2 mM glutamine, 100 U/ml penicillin and 100 micrograms/mL streptomycin;
Microglial cells were treated with different concentrations of TTF, followed by stimulation with LPS (100 ng/mL). After 24 h, conditioned media were collected and tested for cytokine levels by ELISA. Cell viability was determined using the crystal violet assay (FIG. 9C). Values represent the means±SEM (n=4 for each treatment).
Microglial cells were treated with 20 μg/mL of achillolide A, followed by stimulation with LPS (4.5 ng/mL). After 5 h the levels of the indicated transcripts were measured by quantitative real-time PCR and the relative quantity (RQ) of the different transcripts were determined. […] The results are expressed as percentages relative to LPS-stimulated cells. […]
On the technique in general: In an ELISA, binding on a coated surface is turned into a signal by an enzyme label.

Structures are written as SMILES.

For `COc1cc(-c2oc3cc(OC)c(OC)c(O)c3c(=O)c2O)ccc1O` [TTF, 3,5,4′-trihydroxy-6,7,3′-trimethoxyflavone], the “inhibition of H2O2-induced phosphorylation of SAPK/JNK” value with SAPK/JNK (astrocytes pretreated 2 h, total SAPK/JNK not affected) is listed as 80%. Besides, the “effect on LPS-elicited IL-1β secretion” value in the assay with IL-1β is recorded as “markedly inhibited”.

`C=C1CCC2=C(CO)C(=O)O[C@H]2/C=C(\C)[C@H](OC(C)=O)CC1=O` [achillolide A]: the “effect on H2O2-induced phosphorylation of SAPK/JNK” value in the assay on SAPK/JNK (astrocytes preincubated 2 h) was “inhibitory effect”. Moreover, the “inhibition of IL-1β secretion” value in the assay on IL-1β was 59%.
